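Following 48 hours of exposure in 96-well plates, responses at five concentrations were used to interpolate endpoints linearly. GI50 = concentration required for 50% inhibition of growth. Definition used: TGI = concentration required for complete inhibition of growth.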
Columns and labels:
Test in all cases: NCI tumour cell line growth inhibition, 48 h
[1] = system: 786-0 renal
[2] = system: A498 renal
[3] = system: ACHN renal
[4] = system: BT-549 breast
[5] = system: CAKI-1 renal
[6] = system: CCRF-CEM leukemia
[7] = system: COLO 205 colon
[8] = system: DU-145 prostate
[9] = system: HCC-2998 colon
[10] = system: HCT-116 colon
[11] = system: HCT-15 colon
[12] = system: HL-60(TB) leukemia
[13] = system: HOP-62 NSCLC
[14] = system: HOP-92 NSCLC
[15] = system: HS 578T breast
[16] = system: HT29 colon
[17] = system: IGROV1 ovarian
[18] = system: K-562 leukemia
[19] = system: KM12 colon
[20] = system: LOX IMVI melanoma
[21] = system: M14 melanoma
[22] = system: MALME-3M melanoma
[23] = system: MCF7 breast
[24] = system: MDA-MB-435
[25] = system: MDA-MB-468 breast
[26] = system: MOLT-4 leukemia
[27] = system: NCI-H226 lung
[28] = system: NCI-H23 lung
[29] = system: NCI-H460 lung
[30] = system: NCI-H522 lung
[31] = system: NCI/ADR-RES ovarian
[32] = system: OVCAR-3 ovarian
[33] = system: OVCAR-5 ovarian
[34] = system: PC-3 prostate
[35] = system: RPMI-8226 leukemia
[36] = system: RXF 393 renal
[37] = system: SF-268 CNS
[38] = system: SF-295 CNS
[39] = system: SF-539 CNS
[40] = system: SK-MEL-2 melanoma
[41] = system: SK-MEL-28 melanoma
[42] = system: SK-MEL-5 melanoma
[43] = system: SK-OV-3 ovarian
[44] = system: SNB-19 CNS
[45] = system: SNB-75 CNS
[46] = system: SR leukemia
[47] = system: SW-620 colon
[48] = system: T-47D breast
[49] = system: TK-10 renal
[50] = system: U251 CNS
[51] = system: UACC-62 melanoma
[52] = system: UO-31 renal

Structure (SMILES): COc1ccc2cc([C@H](C)C(=O)[Se]CCC#N)ccc2c1
- GI50 [1]: 2.12 µM
- TGI [1]: 3.72 µM
- GI50 [2]: 1.78 µM
- TGI [2]: 3.27 µM
- GI50 [3]: 2.42 µM
- TGI [3]: 5.42 µM
- GI50 [4]: 1.61 µM
- TGI [4]: 3.12 µM
- GI50 [5]: 1.88 µM
- TGI [5]: 3.32 µM
- GI50 [6]: 3.06 µM
- TGI [6]: 56.8 µM
- GI50 [7]: 5.81 µM
- TGI [7]: 23.1 µM
- GI50 [8]: 2.66 µM
- TGI [8]: 8.51 µM
- GI50 [9]: 7.06 µM
- TGI [9]: 22.6 µM
- GI50 [10]: 1.79 µM
- TGI [10]: 3.37 µM
- GI50 [11]: 2 µM
- TGI [11]: 4.53 µM
- GI50 [12]: 1.38 µM
- TGI [12]: 4.24 µM
- GI50 [13]: 2.16 µM
- TGI [13]: 3.94 µM
- GI50 [14]: 1.76 µM
- TGI [14]: 3.48 µM
- GI50 [15]: 2.07 µM
- TGI [15]: 7.29 µM
- GI50 [16]: 2.02 µM
- TGI [16]: 4.82 µM
- GI50 [17]: 2.23 µM
- TGI [17]: 4.98 µM
- GI50 [18]: 3.78 µM
- TGI [18]: 23.6 µM
- GI50 [19]: 5.63 µM
- TGI [19]: 50.9 µM
- GI50 [20]: 1.89 µM
- TGI [20]: 4.97 µM
- GI50 [21]: 1.48 µM
- TGI [21]: 3.44 µM
- GI50 [22]: 1.64 µM
- TGI [22]: 3.39 µM
- GI50 [23]: 2.22 µM
- TGI [23]: 10 µM
- GI50 [24]: 1.79 µM
- TGI [24]: 3.73 µM
- GI50 [25]: 1.96 µM
- TGI [25]: 4.41 µM
- GI50 [26]: 2.62 µM
- TGI [26]: 13 µM
- GI50 [27]: 1.56 µM
- TGI [27]: 3.63 µM
- GI50 [28]: 2.71 µM
- TGI [28]: 7.95 µM
- GI50 [29]: 2.72 µM
- TGI [29]: 12.1 µM
- GI50 [30]: 1.48 µM
- TGI [30]: 2.92 µM
- GI50 [31]: 2 µM
- TGI [31]: 5.21 µM
- GI50 [32]: 2.39 µM
- TGI [32]: 5.78 µM
- GI50 [33]: 2.52 µM
- TGI [33]: 6.29 µM
- GI50 [34]: 2.7 µM
- TGI [34]: 8.53 µM
- GI50 [35]: 2.86 µM
- TGI [35]: 9.32 µM
- GI50 [36]: 1.67 µM
- TGI [36]: 3.22 µM
- GI50 [37]: 2.44 µM
- TGI [37]: 5.11 µM
- GI50 [38]: 1.81 µM
- TGI [38]: 3.55 µM
- GI50 [39]: 1.95 µM
- TGI [39]: 3.75 µM
- GI50 [40]: 1.9 µM
- TGI [40]: 4.39 µM
- GI50 [41]: 2.02 µM
- TGI [41]: 4.8 µM
- GI50 [42]: 2.02 µM
- TGI [42]: 4.07 µM
- GI50 [43]: 4.49 µM
- TGI [43]: 7.42 µM
- GI50 [44]: 1.79 µM
- TGI [44]: 3.47 µM
- GI50 [45]: 1.78 µM
- TGI [45]: 3.59 µM
- GI50 [46]: 2.13 µM
- TGI [46]: 12.2 µM
- GI50 [47]: 2.91 µM
- TGI [47]: 7.97 µM
- GI50 [48]: 5.43 µM
- TGI [48]: 28.2 µM
- GI50 [49]: 1.63 µM
- TGI [49]: 3.09 µM
- GI50 [50]: 1.7 µM
- TGI [50]: 3.26 µM
- GI50 [51]: 2.52 µM
- TGI [51]: 7.52 µM
- GI50 [52]: 1.44 µM
- TGI [52]: 2.78 µM

From PubChem BioAssay (NCI)
